Test results taken from publication PMC6856805, “Environmental Risk Assessment for the Active Pharmaceutical Ingredient Mycophenolic Acid in European Surface Waters” (Environmental Toxicology and Chemistry, 2019).
≈ marks a conversion by molar mass, not a printed value. Where “and” joins values, the source holds several entries; their conditions need not be identical. Equal entries are not always repeated. Where two headings read alike, the source gives them in different places.

Experiments:
[1] = set-up: method as in FASS 2018; conditions: OECD 209; ref FASS 2018; cited from earlier work
[2] = OECD test guideline 106 batch equilibrium adsorption test; type: physicochemical
Procedure: An OECD 106 phase I batch equilibrium adsorption test was performed by Toxi-Coop, Balatonfűred, Hungary (Halász-Laky 2018) with MPA and three soils plus two activated sludges of different characteristics (pHKCl, organic carbon (OC) content, plus for the soils sand fraction, silt fraction, clay fraction and USDA soil texture).
In short, the substrates were put in contact with MPA in aqueous 0.01 M CaCl2 solutions; the mixture was agitated for an appropriate time to reach equilibrium, in the case of MPA for 10 hours. The soil/sludge suspensions were then separated and the aqueous phase diluted twofold with the mobile HPLC phase, analysed by HPLC (Supplemental Information) and the amount of test item in the water phase calculated. The soil or sludge phases were extracted twice with acetonitrile/water/1 mg/mL NaOH solution (75/75/2, v/v/v); the extracts were diluted twofold with the mobile phase and then analysed by HPLC. Based on the analytics the mass balance could be established. The adsorption constant Kd was calculated as MPA concentration adsorbed to substrate divided by MPA concentration in aqueous CaCl2 solution; subsequently the Kd was normalised to the OC content to result in the KOC for the different substrates (Halász-Laky 2018).

[3] = set-up: method as in Wishart et al. 2018; Royal Pharmaceutical Society 2018; conditions: ref Wishart et al. 2018; Royal Pharmaceutical Society 2018; cited from earlier work
Screening vapor pressure = type: physicochemical
Source text: (§1) Syntex derived many basic physicochemical properties for both MPM and MPA in the early 1990s. The results for MPA are mostly given in the present study.
The vapour pressure of MPA was estimated by Syntex by comparing losses of MPA under a nitrogen stream with losses in capped vials and comparing the results with the same losses of a reference substance of known vapour pressure (Young & Licato 1994a).

[4] = Dissociation constant (pKa) by titration; type: physicochemical; conditions: 25 ± 2 °C
Source text: as §1

[5] = Risk quotient PEC/PNEC or MEC/PNEC for STPs and surface freshwaters
Procedure: The potential risk for STPs and surface freshwater organisms was characterized by dividing the various PECs and MECs by the respective PNECs for MPA (Committee for Medicinal Products for Human Use 2015). Further risk assessments were performed for antibiotic resistance risk due to the described antibiotic activity of MPA, risk for environmental top predators, and also risk for humans through so‐called secondary poisoning from uptake of water or fish.

[6] = set-up: method as in Franquet‐Griell et al. (2017a); conditions: ref Franquet‐Griell et al. (2017a); cited from earlier work
humans = assay: Derivation of acceptable daily exposure (ADE); set-up: species or system human
Procedure: Similarly, potential risk for humans from secondary poisoning is assessed by using the acceptable daily exposure (ADE) value for MPA (T. Pfister, unpublished data), which considers toxicological data as well as human experience and covers all routes of uptake, including sensitive subpopulations, over 365 d/annum, with the combined worst‐case uptake through drinking water and fish. No removal of MPA in drinking water production is assumed, but a default intake of 2 L water and 115 g fish/person and day is assumed (European Commission 2011; Murray‐Smith et al. 2012). This combined uptake is then compared with the ADE.
The ADE was derived based on the available nonclinical and clinical data, with the critical effects identified as 1) immunosuppression and secondary effects thereof and 2) teratogenicity; in addition, the relevance of positive results in genotoxicity tests was assessed (T. Pfister, unpublished data). Based on the NOAEL of 2 mg/kg body weight/d in the 12‐mo oral toxicity study in the rat, an ADE was derived by multiplying this NOAEL by a default body weight of 60 kg for humans and dividing by adjustment factors, namely, 6.2 for extrapolation from rats to humans, 10 for variability between individuals, 1 for study duration of 1 yr for rodents, 5 for severity of systemic toxicity (hematopoiesis, immunotoxicity), and 3 for use of an established NOAEL instead of an NOEL; this derivation results in a first ADE of 0.1 mg MPM/60‐kg person/d. […] The weak clastogenic potential observed at higher doses was considered to be irrelevant at these exposure levels. Because the first ADE was lower than, and therefore also protective of, the second, 0.1 mg MPM/60‐kg person/d was selected as the ADE. Stoichiometrically, this ADE for MPM corresponds to 0.0739 mg MPA/d, which was rounded to 0.075 mg or 75 µg MPA/d. The MTDI for an otter was derived by normalizing the ADE for a 60‐kg human to the otter with a default body mass of 10 kg, resulting in an MTDI of 0.0125 mg or 12.5 µg MPA/10‐kg otter/d.

COc1c(C)c2c(c(O)c1CC=C(C)CCC(=O)O)C(=O)OC2 [MPA, 6‐(1,3‐dihydro‐4‐hydroxy‐6‐methoxy‐7‐methyl‐3‐oxo‐5‐isobenzofuranyl)‐4‐methyl‐4‐hexenoic acid]
3‐h EC50, respiration inhibition [1]: 2213 mg/L
EC10, respiration inhibition [1]: 69 mg/L (≈ 215 µM)
highest K OC ([2]; in one of the activated sludges): 37 L/kg
activated sludge K d ([2]; two activated sludges): 9.3 L/kg and 13 L/kg
fraction phase‐I‐metabolized to 6‐O‐desmethyl‐MPA [3]: less than 1%
terminal half‐life [3]: approximately 18 h
Vapor pressure (Screening vapor pressure): < 10^–6 hPa
pK a, carboxylic acid [4]: 4.58
pK a, phenolic [4]: 8.045
highest PEC‐based risk quotient for STPs ([5]; PECSTP 8.83 µg/L / PNECSTP): 0.00128
highest MEC‐based risk quotient for STPs ([5]; STP effluent MEC 4.19 µg/L / PNECSTP): 0.0006
Risk quotient (PNECEC10), Average initial EMA EU PEC ([5]; STP removal 0%): 0.516
Risk quotient (PNECEC10), Average refined PEC per country ([5]; STP removal 12%): 0.141
Risk quotient (PNECEC10), Guadalquivir catchment low flow 99th percentile ePiE PEC ([5]; STP removal 12%): 21.41
Risk quotient (PNECEC10), Guadalquivir catchment low flow median ePiE PEC ([5]; STP removal 12%): <0.002
Risk quotient (PNECEC10), Guadalquivir catchment mean flow 1st percentile ePiE PEC ([5]; STP removal 12%): <0.002
Risk quotient (PNECEC10), Guadalquivir catchment mean flow 99th percentile ePiE PEC ([5]; STP removal 12%): 9.474
Risk quotient (PNECEC10), Guadalquivir catchment mean flow median ePiE PEC ([5]; STP removal 12%): <0.002
Risk quotient (PNECEC10), Highest refined PEC per country ([5]; STP removal 12%): 0.917
Risk quotient (PNECEC10), Lowest refined PEC per country ([5]; STP removal 12%): 0.003
Risk quotient (PNECEC10), Median refined PEC per country ([5]; STP removal 12%): 0.100
Risk quotient (PNECEC10), Ouse catchment low flow 99th percentile ePiE PEC ([5]; STP removal 12%): 4.967
Risk quotient (PNECEC10), Ouse catchment low flow median ePiE PEC ([5]; STP removal 12%): 0.336
Risk quotient (PNECEC10), Ouse catchment mean flow 1st percentile ePiE PEC ([5]; STP removal 12%): 0.002
Risk quotient (PNECEC10), Ouse catchment mean flow 99th percentile ePiE PEC ([5]; STP removal 12%): 1.226
Risk quotient (PNECEC10), Ouse catchment mean flow median ePiE PEC ([5]; STP removal 12%): 0.083
Risk quotient (PNECEC10), Rhine catchment low flow 99th percentile ePiE PEC ([5]; STP removal 12%): 4.597
Risk quotient (PNECEC10), Rhine catchment low flow median ePiE PEC ([5]; STP removal 12%): 0.036
Risk quotient (PNECEC10), Rhine catchment mean flow 1st percentile ePiE PEC ([5]; STP removal 12%): <0.002
Risk quotient (PNECEC10), Rhine catchment mean flow 99th percentile ePiE PEC ([5]; STP removal 12%): 1.157
Risk quotient (PNECEC10), Turia catchment low flow median ePiE PEC ([5]; STP removal 12%): 0.300
Risk quotient (PNECEC10), Turia catchment mean flow 1st percentile ePiE PEC ([5]; STP removal 12%): <0.002
Risk quotient (PNECEC10), Turia catchment mean flow 99th percentile ePiE PEC ([5]; STP removal 12%): 0.955
Risk quotient (PNECEC10), Turia catchment mean flow median ePiE PEC ([5]; STP removal 12%): 0.048
Risk quotient (PNECEC10), Average refined PEC per country ([5]; STP removal 43.6%): 0.100
Risk quotient (PNECEC10), Highest refined PEC per country ([5]; STP removal 43.6%): 0.660
Risk quotient (PNECEC10), Lowest refined PEC per country ([5]; STP removal 43.6%): 0.002
Risk quotient (PNECEC10), Median refined PEC per country ([5]; STP removal 43.6%): 0.072
Risk quotient (PNECEC10), Average refined PEC per country ([5]; STP removal 73.1%): 0.064
Risk quotient (PNECEC10), Highest refined PEC per country ([5]; STP removal 73.1%): 0.422
Risk quotient (PNECEC10), Lowest refined PEC per country ([5]; STP removal 73.1%): <0.002
Risk quotient (PNECEC10), Median refined PEC per country ([5]; STP removal 73.1%): 0.047
risk quotient for the PNECNOEC ([5]; initial use‐based Europe‐wide PEC): 2.27
Risk quotient (PNECEC10), Maximum MEC ([5]; surface water MECs): 1.131
Risk quotient (PNECEC10), Median MEC ([5]; surface water MECs): ~0.003
hydrolytic degradation constant [6]: 0.0002 min^–1
ADE, rounded (humans): 75 µg MPA/d
ADE, stoichiometric (humans): 0.0739 mg MPA/d
ADE, rounded (humans; MPA/d): 0.075 mg
